Several values for one entry are separate records, joined by “and”; a condition that tells them apart may be missing. Equal values may be shown once.
Assay: The binding affinities (Ki) of compounds were determined using fluorescence polarization assays (FPA) that measure their ability to competitively displace a Bad-derived peptide from Bcl-xL. Compound efficacy (EC50) in a cellular context was evaluated by testing their ability to reverse the protection from cytokine w

## CN(C)CC[C@H](CSc1ccccc1)Nc1ccc(S(=O)(=O)NC(=O)c2ccc(N3CCN(C(=O)c4ccccc4)CC3)cc2)cc1[N+](=O)[O-] [4-(4-benzoylpiperazin-1-yl)-N-[(4-{[(2R)-4-(dimethylamino)-1-(phenylsulfanyl)butan-2-yl]amino}-3-nitrobenzene)sulfonyl]benzamide]
  EC50: > 50000 nM
pH 7.4
  EC50: 14600 nM

## CN(C)CC[C@H](CSc1ccccc1)Nc1ccc(S(=O)(=O)NC(=O)c2ccc(N3CCN(Cc4ccccc4)CC3)cc2)cc1[N+](=O)[O-] [4-(4-benzylpiperazin-1-yl)-N-[(4-{[(2R)-4-(dimethylamino)-1-(phenylsulfanyl)butan-2-yl]amino}-3-nitrobenzene)sulfonyl]benzamide]
  EC50: 1700 nM
pH 7.4
  EC50: 1100 nM

## CN(C)CC[C@H](CSc1ccccc1)Nc1ccc(S(=O)(=O)NC(=O)c2ccc(N3CCN(Cc4ccccc4-c4ccccc4Cl)CC3)cc2)cc1[N+](=O)[O-] [4-(4-{[2-(2-chlorophenyl)phenyl]methyl}piperazin-1-yl)-N-[(4-{[(2R)-4-(dimethylamino)-1-(phenylsulfanyl)butan-2-yl]amino}-3-nitrobenzene)sulfonyl]benzamide]
  EC50: 56 nM and 27 nM

## CN(C)CC[C@H](CSc1ccccc1)Nc1ccc(S(=O)(=O)NC(=O)c2ccc(N3CCN(Cc4ccccc4-c4cccc(Cl)c4)CC3)cc2)cc1[N+](=O)[O-] [4-(4-{[2-(3-chlorophenyl)phenyl]methyl}piperazin-1-yl)-N-[(4-{[(2R)-4-(dimethylamino)-1-(phenylsulfanyl)butan-2-yl]amino}-3-nitrobenzene)sulfonyl]benzamide]
  EC50: 180 nM and 33 nM

## CN(C)CC[C@H](CSc1ccccc1)Nc1ccc(S(=O)(=O)NC(=O)c2ccc(N3CCN(Cc4ccccc4NC4CCCCC4)CC3)cc2)cc1[N+](=O)[O-] [4-(4-{[2-(cyclohexylamino)phenyl]methyl}piperazin-1-yl)-N-[(4-{[(2R)-4-(dimethylamino)-1-(phenylsulfanyl)butan-2-yl]amino}-3-nitrobenzene)sulfonyl]benzamide]
  EC50: 660 nM and 340 nM

## CN(C)CC[C@H](CSc1ccccc1)Nc1ccc(S(=O)(=O)NC(=O)c2ccc(N3CCN(C(=O)Nc4ccccc4)CC3)cc2)cc1[N+](=O)[O-] [4-(4-{[(4-{[(2R)-4-(dimethylamino)-1-(phenylsulfanyl)butan-2-yl]amino}-3-nitrobenzene)sulfonyl]carbamoyl}phenyl)-N-phenylpiperazine-1-carboxamide]
  EC50: > 50000 nM
pH 7.4
  EC50: > 50000 nM

## CN(C)CC[C@H](CSc1ccccc1)Nc1ccc(S(=O)(=O)NC(=O)c2ccc(N3CCN(Cc4ccccc4C4CCCCC4)CC3)cc2)cc1[N+](=O)[O-] [4-{4-[(2-cyclohexylphenyl)methyl]piperazin-1-yl}-N-[(4-{[(2R)-4-(dimethylamino)-1-(phenylsulfanyl)butan-2-yl]amino}-3-nitrobenzene)sulfonyl]benzamide]
  EC50: 340 nM and 120 nM

## CC1OC2(CCN(c3ccc(C(=O)NS(=O)(=O)c4ccc(N[C@H](CCN(C)C)CSc5ccccc5)c([N+](=O)[O-])c4)cc3)CC2)N(Cc2ccccc2)C1=O (stereo partly drawn) [4-{4-benzyl-2-methyl-3-oxo-1-oxa-4,8-diazaspiro[4.5]decan-8-yl}-N-[(4-{[(2R)-4-(dimethylamino)-1-(phenylsulfanyl)butan-2-yl]amino}-3-nitrobenzene)sulfonyl]benzamide]
  EC50: > 50000 nM
pH 7.4
  EC50: > 20000 nM

## CN(C)CC[C@H](CSc1ccccc1)Nc1ccc(S(=O)(=O)NC(=O)c2ccc(N3CCC(C)(C)CC3)cc2)cc1[N+](=O)[O-] [N-[(4-{[(2R)-4-(dimethylamino)-1-(phenylsulfanyl)butan-2-yl]amino}-3-nitrobenzene)sulfonyl]-4-(4,4-dimethylpiperidin-1-yl)benzamide]
  EC50: 2200 nM

## COc1cccc(-c2ccccc2CN2CCN(c3ccc(C(=O)NS(=O)(=O)c4ccc(N[C@H](CCN(C)C)CSc5ccccc5)c([N+](=O)[O-])c4)cc3)CC2)c1 [N-[(4-{[(2R)-4-(dimethylamino)-1-(phenylsulfanyl)butan-2-yl]amino}-3-nitrobenzene)sulfonyl]-4-(4-{[2-(3-methoxyphenyl)phenyl]methyl}piperazin-1-yl)benzamide]
  EC50: 380 nM and 460 nM

## CN(C)CC[C@H](CSc1ccccc1)Nc1ccc(S(=O)(=O)NC(=O)c2ccc(N3CCN(Cc4ccccc4-c4ccc(F)cc4)CC3)cc2)cc1[N+](=O)[O-] [N-[(4-{[(2R)-4-(dimethylamino)-1-(phenylsulfanyl)butan-2-yl]amino}-3-nitrobenzene)sulfonyl]-4-(4-{[2-(4-fluorophenyl)phenyl]methyl}piperazin-1-yl)benzamide]
  EC50: 130 nM and 27 nM

## COc1ccc(-c2ccccc2CN2CCN(c3ccc(C(=O)NS(=O)(=O)c4ccc(N[C@H](CCN(C)C)CSc5ccccc5)c([N+](=O)[O-])c4)cc3)CC2)cc1 [N-[(4-{[(2R)-4-(dimethylamino)-1-(phenylsulfanyl)butan-2-yl]amino}-3-nitrobenzene)sulfonyl]-4-(4-{[2-(4-methoxyphenyl)phenyl]methyl}piperazin-1-yl)benzamide]
  EC50: 30 nM and 25 nM

## CN(C)CC[C@H](CSc1ccccc1)Nc1ccc(S(=O)(=O)NC(=O)c2ccc(N3CCN(Cc4ccccc4-c4ccc(-c5ccccc5)cc4)CC3)cc2)cc1[N+](=O)[O-] [N-[(4-{[(2R)-4-(dimethylamino)-1-(phenylsulfanyl)butan-2-yl]amino}-3-nitrobenzene)sulfonyl]-4-(4-{[2-(4-phenylphenyl)phenyl]methyl}piperazin-1-yl)benzamide]
  EC50: 22 nM and 68 nM

## CSc1ccccc1CN1CCN(c2ccc(C(=O)NS(=O)(=O)c3ccc(N[C@H](CCN(C)C)CSc4ccccc4)c([N+](=O)[O-])c3)cc2)CC1 [N-[(4-{[(2R)-4-(dimethylamino)-1-(phenylsulfanyl)butan-2-yl]amino}-3-nitrobenzene)sulfonyl]-4-(4-{[2-(methylsulfanyl)phenyl]methyl}piperazin-1-yl)benzamide]
  EC50: 95 nM and 130 nM

## CN(C)CC[C@H](CSc1ccccc1)Nc1ccc(S(=O)(=O)NC(=O)c2ccc(N3CCN(Cc4ccccc4N4CCOCC4)CC3)cc2)cc1[N+](=O)[O-] [N-[(4-{[(2R)-4-(dimethylamino)-1-(phenylsulfanyl)butan-2-yl]amino}-3-nitrobenzene)sulfonyl]-4-(4-{[2-(morpholin-4-yl)phenyl]methyl}piperazin-1-yl)benzamide]
  EC50: 430 nM and 460 nM

## CN(C)CC[C@H](CSc1ccccc1)Nc1ccc(S(=O)(=O)NC(=O)c2ccc(N3CCN(Cc4ccccc4-c4cccnc4)CC3)cc2)cc1[N+](=O)[O-] [N-[(4-{[(2R)-4-(dimethylamino)-1-(phenylsulfanyl)butan-2-yl]amino}-3-nitrobenzene)sulfonyl]-4-(4-{[2-(pyridin-3-yl)phenyl]methyl}piperazin-1-yl)benzamide]
  EC50: 800 nM and 820 nM

## CN(C)CC[C@H](CSc1ccccc1)Nc1ccc(S(=O)(=O)NC(=O)c2ccc(N3CCN(Cc4ccccc4C(F)(F)F)CC3)cc2)cc1[N+](=O)[O-] [N-[(4-{[(2R)-4-(dimethylamino)-1-(phenylsulfanyl)butan-2-yl]amino}-3-nitrobenzene)sulfonyl]-4-(4-{[2-(trifluoromethyl)phenyl]methyl}piperazin-1-yl)benzamide]
  EC50: 390 nM and 130 nM

## CN(C)CC[C@H](CSc1ccccc1)Nc1ccc(S(=O)(=O)NC(=O)c2ccc(N3CCC(=Cc4ccccn4)CC3)cc2)cc1[N+](=O)[O-] [N-[(4-{[(2R)-4-(dimethylamino)-1-(phenylsulfanyl)butan-2-yl]amino}-3-nitrobenzene)sulfonyl]-4-[4-(pyridin-2-ylmethylidene)piperidin-1-yl]benzamide]
  EC50: 550 nM and 1380 nM

## CN(C)CC[C@H](CSc1ccccc1)Nc1ccc(S(=O)(=O)NC(=O)c2ccc(N3CCC(=Cc4cccnc4)CC3)cc2)cc1[N+](=O)[O-] [N-[(4-{[(2R)-4-(dimethylamino)-1-(phenylsulfanyl)butan-2-yl]amino}-3-nitrobenzene)sulfonyl]-4-[4-(pyridin-3-ylmethylidene)piperidin-1-yl]benzamide]
  EC50: 1900 nM and 5300 nM

## CN(C)CC[C@H](CSc1ccccc1)Nc1ccc(S(=O)(=O)NC(=O)c2ccc(N3CCN(Cc4ccccc4-c4ccc(C(F)(F)F)cc4)CC3)cc2)cc1[N+](=O)[O-] [N-[(4-{[(2R)-4-(dimethylamino)-1-(phenylsulfanyl)butan-2-yl]amino}-3-nitrobenzene)sulfonyl]-4-[4-({2-[4-(trifluoromethyl)phenyl]phenyl}methyl)piperazin-1-yl]benzamide]
  EC50: 40 nM and 13 nM

## CN(C)CC[C@H](CSc1ccccc1)Nc1ccc(S(=O)(=O)NC(=O)c2ccc(N3CCN(Cc4ccccc4S(C)(=O)=O)CC3)cc2)cc1[N+](=O)[O-] [N-[(4-{[(2R)-4-(dimethylamino)-1-(phenylsulfanyl)butan-2-yl]amino}-3-nitrobenzene)sulfonyl]-4-{4-[(2-methanesulfonylphenyl)methyl]piperazin-1-yl}benzamide]
  EC50: 5500 nM and 6800 nM

## COc1ccccc1CN1CCN(c2ccc(C(=O)NS(=O)(=O)c3ccc(N[C@H](CCN(C)C)CSc4ccccc4)c([N+](=O)[O-])c3)cc2)CC1 [N-[(4-{[(2R)-4-(dimethylamino)-1-(phenylsulfanyl)butan-2-yl]amino}-3-nitrobenzene)sulfonyl]-4-{4-[(2-methoxyphenyl)methyl]piperazin-1-yl}benzamide]
  EC50: 390 nM and 950 nM

## Cc1ccccc1CN1CCN(c2ccc(C(=O)NS(=O)(=O)c3ccc(N[C@H](CCN(C)C)CSc4ccccc4)c([N+](=O)[O-])c3)cc2)CC1 [N-[(4-{[(2R)-4-(dimethylamino)-1-(phenylsulfanyl)butan-2-yl]amino}-3-nitrobenzene)sulfonyl]-4-{4-[(2-methylphenyl)methyl]piperazin-1-yl}benzamide]
  EC50: 410 nM and 940 nM

## CN(C)CC[C@H](CSc1ccccc1)Nc1ccc(S(=O)(=O)NC(=O)c2ccc(N3CCN(Cc4ccccc4-c4ccccc4)CC3)cc2)cc1[N+](=O)[O-] [N-[(4-{[(2R)-4-(dimethylamino)-1-(phenylsulfanyl)butan-2-yl]amino}-3-nitrobenzene)sulfonyl]-4-{4-[(2-phenylphenyl)methyl]piperazin-1-yl}benzamide]
  EC50: 18 nM and 16 nM
